We go through 25 compounds from patent US10543212B2, “Substituted amines for treating cardiac diseases” (Cardurion Pharmaceuticals, LLC, priority 2017, dated 2020).

Usually IC50 stands for the point on the concentration scale where inhibition reaches its midpoint.

The target in the experiment is T1, Full-length, GST-tagged, human CaMKIIδ (Homo sapiens, UniProt Q13557).
T1 construct: Full-Length, Glutathione-S-Transferase(GST)-Tagged, Human CaMKIIδ was purchased from Carna Biosciences; purchased Carna Biosciences 02-111
T1 sequence (Q13557 1-478 isoform Q13557-12): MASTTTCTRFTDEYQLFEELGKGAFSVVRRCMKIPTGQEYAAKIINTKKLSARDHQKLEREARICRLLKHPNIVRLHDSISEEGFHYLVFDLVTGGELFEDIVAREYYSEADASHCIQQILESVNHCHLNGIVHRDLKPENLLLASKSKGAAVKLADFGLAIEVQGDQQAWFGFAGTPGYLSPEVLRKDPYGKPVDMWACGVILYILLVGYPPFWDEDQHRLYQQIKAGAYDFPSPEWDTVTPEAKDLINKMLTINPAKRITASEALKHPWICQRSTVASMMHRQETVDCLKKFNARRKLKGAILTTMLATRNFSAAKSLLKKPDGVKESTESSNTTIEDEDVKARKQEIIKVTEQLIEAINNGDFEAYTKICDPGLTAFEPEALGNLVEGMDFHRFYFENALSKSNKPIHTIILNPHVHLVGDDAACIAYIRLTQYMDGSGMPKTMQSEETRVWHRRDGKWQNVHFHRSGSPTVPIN
As to the kind of experiment: CaMKIIδ binding assay (TR-FRET with BODIPY-labeled probe ligand). The note with it: Table 2; activity class for CaMKIIδ. A digest of the protocol:
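TR-FRET probe-displacement binding: 0.5 nM GST-CaMKIIδ with 10 μg/mL calmodulin, 1 mM CaCl2, 0.21 nM Tb-anti-GST Ab and 300 nM BODIPY probe in HEPES pH 7.6 buffer. Eight-point 4-fold dilutions, 1 hr at room temperature. IC50 from logistic fit; 100% inhibition defined by 3 μM parent compound.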
Background: Time-resolved FRET reads energy transfer from a long-lived donor to a nearby acceptor.
As to `C[C@@H](Cn1cnnn1)Oc1cc(-c2cnc(Nc3cn([C@H]4CC[C@H](C(=O)O)CC4)nc3C(F)(F)F)nc2)ccc1Cl` [Example 626, trans-(S)-4-(4-((5-(3-((1-(1H-tetrazol-1-yl)propan-2-yl)oxy)-4-chlorophenyl)pyrimidin-2-yl)amino)-3-(trifluoromethyl)-1H-pyrazol-1-yl)cyclohexane-1-carboxylic acid], the IC50 lay within 10 to 100 nM.
As for `C[C@@H](Cn1cnnn1)Oc1cc(-c2cnc(Nc3cc(N4CC(N5CCOCC5)C4)ncc3OC(F)(F)F)nc2)ccc1Cl` [Example 627, (S)-5-(3-((1-(1H-tetrazol-1-yl)propan-2-yl)oxy)-4-chlorophenyl)-N-(2-(3-morpholinoazetidin-1-yl)-5-(trifluoromethoxy)pyridin-4-yl)pyrimidin-2-amine], the IC50 is 10 to 100 nM.
Take `C[C@@H](Cn1cnnn1)Oc1cc(-c2cnc(Nc3c[nH]nc3C(F)(F)F)nc2)ccc1Cl` [Example 628, (S)-5-(3-((1-(1H-tetrazol-1-yl)propan-2-yl)oxy)-4-chlorophenyl)-N-(3-(trifluoromethyl)-1H-pyrazol-4-yl)pyrimidin-2-amine]: the 50% inhibitory concentration (IC50) was 10 to 100 nM.
For `C[C@@H](Cn1cnnn1)Oc1cc(-c2cnc(Nc3cn(C4CCCCNC4=O)nc3C(F)(F)F)nc2)ccc1Cl` (stereo partly drawn) [Example 629, 3-(4-((5-(3-(((S)-1-(1H-tetrazol-1-yl)propan-2-yl)oxy)-4-chlorophenyl)pyrimidin-2-yl)amino)-3-(trifluoromethyl)-1H-pyrazol-1-yl)azepan-2-one] the value was less than 10 nM; for `C[C@@H](Cn1cnnn1)Oc1cc(-c2cnc(Nc3cn(CCNC(=O)c4ccccc4)nc3C(F)(F)F)nc2)ccc1Cl` [Example 630, (S)-N-(2-(4-((5-(3-((1-(1H-tetrazol-1-yl)propan-2-yl)oxy)-4-chlorophenyl)pyrimidin-2-yl)amino)-3-(trifluoromethyl)-1H-pyrazol-1-yl)ethyl)benzamide], no less than 100 nM.
For `C[C@@H](Cn1cnnn1)Oc1cc(-c2cnc(Nc3cn(CCN4CCCC4)nc3C(F)(F)F)nc2)ccc1Cl` [Example 631, (S)-5-(3-((1-(1H-tetrazol-1-yl)propan-2-yl)oxy)-4-chlorophenyl)-N-(1-(2-(pyrrolidin-1-yl)ethyl)-3-(trifluoromethyl)-1H-pyrazol-4-yl)pyrimidin-2-amine] the value was less than 10 nM; for `CCc1nn(C2CCN(C3CCOCC3)CC2)cc1Nc1ncc(-c2ccc(Cl)c(O[C@@H](C)Cn3cnnn3)c2)cn1` [Example 632, (S)-5-(3-((1-(1H-tetrazol-1-yl)propan-2-yl)oxy)-4-chlorophenyl)-N-(3-ethyl-1-(1-(tetrahydro-2H-pyran-4-yl)piperidin-4-yl)-1H-pyrazol-4-yl)pyrimidin-2-amine], less than 10 nM.
With `C[C@@H](Cn1cnnn1)Oc1cc(-c2cnc(Nc3cn(CCN4CCOCC4)nc3C(F)(F)F)nc2)ccc1Cl` [Example 633, (S)-5-(3-((1-(1H-tetrazol-1-yl)propan-2-yl)oxy)-4-chlorophenyl)-N-(1-(2-morpholinoethyl)-3-(trifluoromethyl)-1H-pyrazol-4-yl)pyrimidin-2-amine] the figure was 10 to 100 nM; with `COc1cc(N2C[C@@H]3C[C@H]2CN3)ccc1Nc1ncc(-c2ccc(Cl)c(O[C@@H](C)Cn3cnnn3)c2)cn1` [Example 634, 5-(3-(((S)-1-(1H-tetrazol-1-yl)propan-2-yl)oxy)-4-chlorophenyl)-N-(4-((1S,45)-2,5-diazabicyclo[2.2.1]heptan-2-yl)-2-methoxyphenyl)pyrimidin-2-amine], 10 to 100 nM; with `C[C@@H](Cn1cnnn1)Oc1cc(-c2cnc(Nc3cn(CC4CCCN(C)C4)nc3C(F)(F)F)nc2)ccc1Cl` (stereo partly drawn) [Example 635, 5-(3-(((S)-1-(1H-tetrazol-1-yl)propan-2-yl)oxy)-4-chlorophenyl)-N-(1-((1-methylpiperidin-3-yl)methyl)-3-(trifluoromethyl)-1H-pyrazol-4-yl)pyrimidin-2-amine], 10 to 100 nM.
`COc1nc(N2CCN(C3CCC(F)(F)CC3)CC2)ccc1Nc1ncc(-c2ccc(Cl)c(O[C@@H](C)Cn3cnnn3)c2)cn1` [Example 636, (S)-5-(3-((1-(1H-tetrazol-1-yl)propan-2-yl)oxy)-4-chlorophenyl)-N-(6-(4-(4,4-difluorocyclohexyl)piperazin-1-yl)-2-methoxypyridin-3-yl)pyrimidin-2-amine] displayed a half-maximal inhibitory concentration (IC50) of 10 to 100 nM.
With `COc1nc(N2CCN(CC(F)(F)F)CC2)ccc1Nc1ncc(-c2ccc(Cl)c(O[C@@H](C)Cn3cnnn3)c2)cn1` [Example 637, (S)-5-(3-((1-(1H-tetrazol-1-yl)propan-2-yl)oxy)-4-chlorophenyl)-N-(2-methoxy-6-(4-(2,2,2-trifluoroethyl)piperazin-1-yl)pyridin-3-yl)pyrimidin-2-amine] the figure was no less than 100 nM; with `COc1nc(N2CCN(C(=O)C(F)(F)F)CC2)ccc1Nc1ncc(-c2ccc(Cl)c(O[C@@H](C)Cn3cnnn3)c2)cn1` [Example 638, (S)-1-(4-(5-((5-(3-((1-(1H-tetrazol-1-yl)propan-2-yl)oxy)-4-chlorophenyl)pyrimidin-2-yl)amino)-6-methoxypyridin-2-yl)piperazin-1-yl)-2,2,2-trifluoroethan-1-one], no less than 100 nM.
With `COc1nc(N2CCN(CC3COC3)CC2)ccc1Nc1ncc(-c2ccc(Cl)c(O[C@@H](C)Cn3cnnn3)c2)cn1` [Example 639, (S)-5-(3-((1-(1H-tetrazol-1-yl)propan-2-yl)oxy)-4-chlorophenyl)-N-(2-methoxy-6-(4-(oxetan-3-ylmethyl)piperazin-1-yl)pyridin-3-yl)pyrimidin-2-amine] the figure was 10 to 100 nM; with `COc1nc(N2CCN(C3CCOC3)CC2)ccc1Nc1ncc(-c2ccc(Cl)c(O[C@@H](C)Cn3cnnn3)c2)cn1` (stereo partly drawn) [Example 640, 5-(3-(((S)-1-(1H-tetrazol-1-yl)propan-2-yl)oxy)-4-chlorophenyl)-N-(2-methoxy-6-(4-(tetrahydrofuran-3-yl)piperazin-1-yl)pyridin-3-yl)pyrimidin-2-amine], 10 to 100 nM; with `C[C@@H](Cn1cnnn1)Oc1cc(-c2cnc(Nc3cn(CC4CN(Cc5ccccc5)CCO4)nc3C(F)(F)F)nc2)ccc1Cl` (stereo partly drawn) [Example 641, 5-(3-(((S)-1-(1H-tetrazol-1-yl)propan-2-yl)oxy)-4-chlorophenyl)-N-(1-((4-benzylmorpholin-2-yl)methyl)-3-(trifluoromethyl)-1H-pyrazol-4-yl)pyrimidin-2-amine], no less than 100 nM.
In turn, `CCn1cc(Nc2ncc(-c3ccc(Cl)c(O[C@@H](C)Cn4cnnn4)c3)cn2)c(C2CC2)n1` [Example 642, (S)-5-(3-((1-(1H-tetrazol-1-yl)propan-2-yl)oxy)-4-chlorophenyl)-N-(3-cyclopropyl-1-ethyl-1H-pyrazol-4-yl)pyrimidin-2-amine] gave an IC50 of 10 to 100 nM.
On to `CCn1cc(Nc2ncc(-c3ccc(Cl)c(O[C@@H](C)Cn4cnnn4)c3)cn2)c(-c2ccccc2)n1` [Example 643, (S)-5-(3-((1-(1H-tetrazol-1-yl)propan-2-yl)oxy)-4-chlorophenyl)-N-(1-ethyl-3-phenyl-1H-pyrazol-4-yl)pyrimidin-2-amine], for which the 50% inhibitory concentration (IC50) was in the range of 10 to 100 nM.
Regarding `C[C@@H](Cn1cnnn1)Oc1cc(-c2cnc(Nc3cn(C4CCOC4)nc3C(F)(F)F)nc2)ccc1Cl` (stereo partly drawn) [Example 644, 5-(3-(((S)-1-(1H-tetrazol-1-yl)propan-2-yl)oxy)-4-chlorophenyl)-N-(1-(tetrahydrofuran-3-yl)-3-(trifluoromethyl)-1H-pyrazol-4-yl)pyrimidin-2-amine], the half-maximal inhibitory concentration (IC50) lay within 10 to 100 nM.
For `C[C@@H](Cn1cnnn1)Oc1cc(-c2cnc(Nc3cn(C4CCOCC4)nc3C(F)(F)F)nc2)ccc1Cl` [Example 645, (S)-5-(3-((1-(1H-tetrazol-1-yl)propan-2-yl)oxy)-4-chlorophenyl)-N-(1-(tetrahydro-2H-pyran-4-yl)-3-(trifluoromethyl)-1H-pyrazol-4-yl)pyrimidin-2-amine] the value was 10 to 100 nM; for `COc1nn(C2CCN(C(=O)OC(C)(C)C)CC2)cc1Nc1ncc(-c2ccc(Cl)c(O[C@@H](C)Cn3cnnn3)c2)cn1` [Example 646, tert-butyl (S)-4-(4-((5-(3-((1-(1H-tetrazol-1-yl)propan-2-yl)oxy)-4-chlorophenyl)pyrimidin-2-yl)amino)-3-methoxy-1H-pyrazol-1-yl)piperidine-1-carboxylate], 10 to 100 nM; for `COc1cc(N2CCN(C3CCOCC3)CC2)cnc1Nc1ncc(-c2ccc(Cl)c(O[C@@H](C)Cn3cnnn3)c2)cn1` [Example 647, (S)-5-(3-((1-(1H-tetrazol-1-yl)propan-2-yl)oxy)-4-chlorophenyl)-N-(3-methoxy-5-(4-(tetrahydro-2H-pyran-4-yl)piperazin-1-yl)pyridin-2-yl)pyrimidin-2-amine], 10 to 100 nM.
With `COc1cc(N2CCN(CC3COC3)CC2)cnc1Nc1ncc(-c2ccc(Cl)c(O[C@@H](C)Cn3cnnn3)c2)cn1` [Example 648, (S)-5-(3-((1-(1H-tetrazol-1-yl)propan-2-yl)oxy)-4-chlorophenyl)-N-(3-methoxy-5-(4-(oxetan-3-ylmethyl)piperazin-1-yl)pyridin-2-yl)pyrimidin-2-amine] the figure was 10 to 100 nM.
For `COc1cc(N2CCNC[C@@H]2C)ccc1Nc1ncc(-c2ccc(Cl)c(O[C@@H](C)Cn3cnnn3)c2)cn1` [Example 649, 5-(3-(((S)-1-(1H-tetrazol-1-yl)propan-2-yl)oxy)-4-chlorophenyl)-N-(2-methoxy-4-((S)-2-methylpiperazin-1-yl)phenyl)pyrimidin-2-amine] the value was less than 10 nM; for `COc1cc(N2CCN(C3CCOCC3)CC2)ncc1Nc1ncc(-c2ccc(Cl)c(O[C@@H](C)Cn3cnnn3)c2)cn1` [Example 650, (S)-5-(3-((1-(1H-tetrazol-1-yl)propan-2-yl)oxy)-4-chlorophenyl)-N-(4-methoxy-6-(4-(tetrahydro-2H-pyran-4-yl)piperazin-1-yl)pyridin-3-yl)pyrimidin-2-amine], less than 10 nM.
